According to ChEMBL document CHEMBL1201862, “PubChem BioAssay data set” (2004):
The source made the active and inactive calls.

How the values were obtained:
[1] = OVCAR-3 cell viability loss – plate reader, dry powder samples, PAX8 inhibitor project, dose response (AID 743044); assay type: functional, cell-based
[2] = antimalarial activity against Dd2 parasites – SYBR Green fluorescence, erythrocytes, dry powder, set 2, dose response (AID 1159574); assay type: functional, cell-based
Paired box protein Pax-8 = Paired box protein Pax-8 (Homo sapiens, UniProt Q06710); assay: PAX8 transcriptional activity inhibition in RMG-I – RMG-I cells, luciferase, cherry-pick, dose response (AID 687027); assay type: functional, cell-based;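 also: luciferase reporter driven by Pax8 target thyroperoxidase promoter measured by SteadyGlo luminescence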
Chain of Paired box protein Pax-8 (Q06710 whole entry): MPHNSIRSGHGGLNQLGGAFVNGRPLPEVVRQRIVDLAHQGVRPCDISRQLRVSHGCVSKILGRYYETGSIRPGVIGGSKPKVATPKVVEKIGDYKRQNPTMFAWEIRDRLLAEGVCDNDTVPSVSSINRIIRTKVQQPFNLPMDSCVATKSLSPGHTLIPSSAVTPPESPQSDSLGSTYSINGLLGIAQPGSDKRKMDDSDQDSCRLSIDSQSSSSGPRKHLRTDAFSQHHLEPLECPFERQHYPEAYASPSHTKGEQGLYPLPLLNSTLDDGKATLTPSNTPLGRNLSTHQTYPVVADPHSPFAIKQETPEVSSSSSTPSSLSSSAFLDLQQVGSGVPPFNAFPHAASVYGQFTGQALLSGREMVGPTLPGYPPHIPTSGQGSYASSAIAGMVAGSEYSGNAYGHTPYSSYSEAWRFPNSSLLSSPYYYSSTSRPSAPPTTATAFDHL

[3] = general cell-killing toxicity readout – plate reader, dry powder samples, cytotoxicity control for PAX8 inhibitor project, dose response (AID 743021); assay type: functional, cell-based
[4] = OVCAR8 cell viability loss – plate reader, dry powder samples, PAX8 project, dose response (AID 743197); assay type: functional, cell-based; details: OVCAR-8
[5] = OVCAR4 cell viability loss – plate reader, dry powder, SA11, cytotoxicity control for PAX8 inhibitor project, dose response (AID 743150); assay type: functional, cell-based; details: OVCAR-4
[6] = OV-90 cell viability loss – plate reader, dry powder, SA8, PAX8 inhibitor project, dose response (AID 743149); assay type: functional, cell-based
[7] = HIV-1 AD8 envelope cell-cell fusion blockers – cherry-pick, dose response (AID 652062); assay type: functional, cell-based;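 also: luciferase signal from cell-cell fusion driven by HIV-1 clade B AD8 Env; potency is for inhibitors of fusion seen as a drop in luminescence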
[8] = COV434 cell viability loss – plate reader, dry powder, SA7, cytotoxicity control for PAX8 inhibitor project, dose response (AID 743145); assay type: functional, cell-based
[9] = inhibitors acting on PAX2 in cells – cell-based, plate reader, dry powder samples, selectivity assay for PAX8 inhibitor project, dose response (AID 743048); assay type: functional;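 also: HEK293 cells carrying a WT1 promoter luciferase reporter driven by expressed Pax2; potency is for inhibition of Pax2 driven reporter signal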
[10] = PAX5 cellular inhibition readout – cell-based, plate reader, dry powder samples, selectivity assay for PAX8 inhibitor project, dose response (AID 743047); assay type: functional;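 also: HEK293 cells carrying a Pax5 driven CD19 promoter luciferase reporter; potency of inhibitors that lower reporter luminescence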
[11] = blockers of HIV-1 envelope-mediated cell-cell fusion – cherry-pick, dose response (AID 652057); assay type: functional, cell-based
[12] = PAX8-dependent cell viability loss – plate reader, dry powder, dose response (AID 743049); assay type: functional, cell-based
[13] = biological target: DNA dC->dU-editing enzyme APOBEC-3A (Homo sapiens, UniProt P31941); assay: A3A deaminase inhibition for selectivity – biochemical, dose response (AID 504722); assay type: functional
Chain of DNA dC->dU-editing enzyme APOBEC-3A (P31941 whole entry): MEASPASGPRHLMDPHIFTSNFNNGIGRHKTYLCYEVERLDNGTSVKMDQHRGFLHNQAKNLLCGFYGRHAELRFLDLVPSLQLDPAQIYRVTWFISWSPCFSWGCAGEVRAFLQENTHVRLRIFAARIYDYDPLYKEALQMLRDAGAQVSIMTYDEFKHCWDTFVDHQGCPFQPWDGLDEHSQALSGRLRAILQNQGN

[14] = biological target: DNA dC->dU-editing enzyme APOBEC-3G (Homo sapiens, UniProt Q9HC16); assay: Dose Response confirmation of small molecule APOBEC3G DNA Deaminase Inhibitors via a fluorescence-based single-stranded DNA deaminase assay. [Related pubchem assays (depositor defined):AID493012, AID493028]; assay type: functional
Chain of DNA dC->dU-editing enzyme APOBEC-3G (Q9HC16 whole entry): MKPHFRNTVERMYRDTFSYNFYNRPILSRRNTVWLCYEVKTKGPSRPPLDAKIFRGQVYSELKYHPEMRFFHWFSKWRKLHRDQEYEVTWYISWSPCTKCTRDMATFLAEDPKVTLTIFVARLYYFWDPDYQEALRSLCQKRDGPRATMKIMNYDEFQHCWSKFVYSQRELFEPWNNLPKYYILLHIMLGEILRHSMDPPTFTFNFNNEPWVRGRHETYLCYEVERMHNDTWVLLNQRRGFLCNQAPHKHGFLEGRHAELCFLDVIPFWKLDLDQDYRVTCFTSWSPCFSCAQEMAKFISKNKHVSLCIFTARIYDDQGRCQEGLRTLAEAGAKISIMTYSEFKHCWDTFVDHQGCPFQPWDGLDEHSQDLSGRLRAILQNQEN

[15] = HGIII-sPLA2 enzyme inhibition potency – biochemical, QFRET, IC50, dose response (AID 743457);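 also: green fluorescence rise as the enzyme cleaves BODIPY PC-A2 in liposomes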
Galanin receptor type 3 = Galanin receptor type 3 (Homo sapiens, UniProt O60755); assay: Fluorescence-based cell-based primary high throughput dose response assay to identify antagonists of the Galanin Receptor 3 (GalR3).; assay type: functional
Chain of Galanin receptor type 3 (O60755 whole entry): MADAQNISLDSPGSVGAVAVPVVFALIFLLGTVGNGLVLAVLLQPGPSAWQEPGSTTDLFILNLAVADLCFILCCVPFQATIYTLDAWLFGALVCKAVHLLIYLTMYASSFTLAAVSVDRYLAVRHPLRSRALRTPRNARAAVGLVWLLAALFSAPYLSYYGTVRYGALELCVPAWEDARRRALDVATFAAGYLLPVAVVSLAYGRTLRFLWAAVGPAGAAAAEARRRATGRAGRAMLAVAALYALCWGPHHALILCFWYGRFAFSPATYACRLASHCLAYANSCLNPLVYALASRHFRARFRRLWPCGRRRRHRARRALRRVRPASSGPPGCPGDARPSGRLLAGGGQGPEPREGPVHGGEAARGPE

cells = assay type: functional, cell-based; details: HEK-CNG
[16] = HIV-1 Vif–A3G interaction blockers – biochemical, TR-FRET, GST-Vif 1-94, biotin-A3G peptide, dose response retest, primary screen (AID 1117319); assay type: functional;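 also: TR-FRET signal of purified GST-Vif binding a biotinylated A3G peptide; inhibitors lower the FRET signal by blocking Vif and A3G binding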
[17] = biological target: Glutathione-S-transferase (Schistosoma japonicum, UniProt Q26513); assay: GST-antibody interaction or FRET quenching – biochemical, TR-FRET, artefact control for Vif-APOBEC3G degradation inhibitor project, dose response (AID 1117362); assay type: functional
Chain of Glutathione-S-transferase (Q26513 whole entry): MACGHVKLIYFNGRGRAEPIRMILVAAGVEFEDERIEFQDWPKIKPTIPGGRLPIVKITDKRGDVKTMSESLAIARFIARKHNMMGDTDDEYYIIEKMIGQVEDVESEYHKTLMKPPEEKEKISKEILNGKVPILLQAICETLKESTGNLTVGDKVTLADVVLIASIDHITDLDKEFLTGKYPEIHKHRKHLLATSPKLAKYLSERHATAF

[18] = Late stage assay provider results from the probe development effort to identify selective inhibitors of heat shock protein 90 (HSP90): Absorbance-based cell proliferation assay in SKBR3 cells.; assay type: functional; details: SK-BR-3
[19] = Late stage assay provider results from the probe development effort to identify selective inhibitors of heat shock protein 90 (HSP90): Absorbance-based cell proliferation assay in MCF7 cells.; assay type: functional
[20] = rise of 2N DNA cells, HeLa – IC50, dose response (AID 1117349); assay type: functional, cell-based
[21] = rise of 4N DNA cells, HeLa – IC50, dose response (AID 1117351); assay type: functional, cell-based
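For EC50 in this document: target is galanin receptor GalR3 read with a cAMP biosensor in HEK293 cells.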

For `COc1ccc(NC(=O)N2CCCCN3[C@H](C2)[C@@H](c2ccc(C#Cc4ccccc4)cc2)[C@@H]3CO)cc1`, the AC50 [1] was 58.4 µM (active), the AC50 [2] was 2.1 µM (active) and the AC50 (Paired box protein Pax-8) was 5.67 µM (active). For the same compound, the AC50 [3] was 29.7 µM (active) and the AC50 [4] was 39.7 µM (active).

For `N#C[C@@H]1[C@H](c2ccc(-c3ccccc3F)cc2)[C@@H](CO)N1C(=O)Cc1ccccc1`, the AC50 [5] was 30.4 µM (active), the AC50 (Paired box protein Pax-8) was 17.3 µM (active) and the AC50 [6] was 56.2 µM (active). The AC50 [7] was 19.8 µM (active), the AC50 [8] was > 70 µM (inactive) and the AC50 [9] was 23.8 µM (active). For the same compound, the AC50 [10] was 26.2 µM (active), the AC50 [11] was 35 µM (active) and the AC50 [12] was 20.3 µM (active).

In the case of `CCn1c(S)nnc1-c1cc2c(C(F)(F)F)nn(C)c2s1`, the IC50 [13] is reported as > 100 µM (inactive), the IC50 [14] is reported as 3.06 µM (active) and the IC50 [15] is reported as > 122 µM (inactive).

For `Cc1cccc(NN=C(S)Nc2c(C)cccc2C)c1`, the IC50 [15] was > 122 µM (inactive).

With `N#Cc1cc(-c2ccccc2)oc1NC(=O)c1ccco1` the IC50 (Galanin receptor type 3) was 8.23 µM (active) and the EC50 (cells) was > 29.9 µM (inactive).

For `O=C(COC(=O)C12CC3CC(CC(Br)(C3)C1)C2)Nc1ccc2[nH]c(O)nc2c1`, the IC50 [16] was > 100 µM (active) and the IC50 [17] was 73.5 µM (active).

For `COc1ccc2cc(Br)c(=O)oc2c1`, the IC50 [18] was > 100 µM (inactive) and the IC50 [19] was > 100 µM (inactive).

For `NCCNc1ccc(NCCN)c2c1C(=O)c1ccncc1C2=O` [PIXANTRONE], the IC50 [20] was 0.042 µM (active) and the IC50 [21] was 0.0483 µM (active).
